In PubChem BioAssay (NCI):
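Test compounds were applied to cells in 96-well plates for 48 hours at 5 doses. TGI is the concentration that stops growth completely.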

Experiments:
Assay in all cases: NCI-60 cell line screen, 48 h
[1] = tested on: M14 melanoma
[2] = tested on: HT29 colon
[3] = tested on: SF-268 CNS
[4] = tested on: MOLT-4 leukemia
[5] = tested on: IGROV1 ovarian
[6] = tested on: NCI-H522 lung
[7] = tested on: 786-0 renal
[8] = tested on: A549 NSCLC
[9] = tested on: HOP-92 NSCLC

SMILES	TGI [1]	TGI [2]	TGI [3]	TGI [4]	TGI [5]	TGI [6]	TGI [7]	TGI [8]	TGI [9]
[O-][N+]1=C2CCC/C(=N/O)C2(O)C2CCCCC21N1CCOCC1 (centres undefined)	> 100 µM	> 100 µM	> 100 µM	> 100 µM	> 100 µM	> 100 µM	> 100 µM	> 100 µM	–
COC(=O)C1Cc2cc3c(cc2C1)CCC3	> 100 µM	> 100 µM	> 100 µM	> 100 µM	> 100 µM	–	> 100 µM	> 100 µM	> 100 µM
CCOC(=O)CC1Nc2ccccc2C12CCc1c([nH]c3ccccc13)C2C(=O)OCC (centres undefined)	> 100 µM	40.1 µM	> 100 µM	> 100 µM	61.7 µM	> 100 µM	> 100 µM	> 100 µM	–
O=C(O)c1ccc(Nc2cnc3cc(C(F)(F)F)ccc3n2)cc1	–	> 100 µM	> 100 µM	> 100 µM	> 100 µM	60.6 µM	> 100 µM	> 100 µM	–
CCCCCCc1cc2cc(C(=O)Nc3cccc(F)c3)c(=N)oc2cc1O	11.3 µM	78.6 µM	10.6 µM	7.69 µM	4 µM	5.33 µM	11.5 µM	13.4 µM	–
O=C(CC(C(=O)c1cccs1)c1ccc2c(c1)OCO2)c1ccccc1 (centres undefined)	> 100 µM	> 100 µM	> 100 µM	–	> 100 µM	> 100 µM	> 100 µM	> 100 µM	> 100 µM
O=C1c2ccccc2C(=O)N1NC1=NCCN1	> 100 µM	> 100 µM	> 100 µM	> 100 µM	> 100 µM	> 100 µM	> 100 µM	> 100 µM	–
O=C1OC(c2ccccc2Br)=N/C1=C/c1ccccc1	41.1 µM	> 100 µM	> 100 µM	> 100 µM	> 100 µM	72.2 µM	–	> 100 µM	–
NC1NCCC(=O)N1CCc1c[nH]c2ccccc12 (centres undefined)	33.3 µM	82.9 µM	46.4 µM	–	43.1 µM	> 100 µM	37.6 µM	69.3 µM	69.5 µM
C[C@@H](c1ccccc1)N1CO[C@@]2(C#Cc3ccc4c(c3)OCO4)CCC[C@@H]12	31.2 µM	34.6 µM	–	48.2 µM	22.9 µM	–	36 µM	29.6 µM	19.7 µM
Cc1cc(N=Cc2c(CO)cnc(C)c2O)c(N=Cc2c(CO)cnc(C)c2O)cc1C	> 100 µM	> 100 µM	> 100 µM	–	> 100 µM	> 100 µM	> 100 µM	> 100 µM	–
